According to patent US5571799A, “(2'-5') oligoadenylate analogues useful as inhibitors of host-v5.-graft response” (Basco, Ltd., priority 1994, dated 1996):
Entries after “also recorded” stand apart in the source; their conditions may differ.

Experiments:
Format in all cases: in vivo, Macaque Rh. monkeys
[1] = tested on: T-helpers; assay: T-helpers in monkeys after kidney transplantation; details: for T-helpers: 50 μg/kg IV, 2 days pre-op. 30
Procedure: (§1) FLOW CYTOFLUOROGRAFIC ANALYSIS OF LYMPHOCYTE SUBSETS
(§2) Blood samples (100 μl of whole blood) were placed into a 12×17 tube. To these cells 20 μl of purified monoclonal antibodies were added with specificity for human cytotoxic/suppressor cells anti-Leu-2a (CD8), human helper/inducer anti-Leu-3a (CD4) and FITC conjugated monoclonal antibodies with specificity for natural killer cells-anti-Leu11c (CD16) (Becton Dickinson, San Jose). After 30 minutes incubation on ice, the cells were washed once and 20 μl of goat-antimouse chain phycoerythrin (Sigma P1286) conjugate were added to the tube with anti-Leu-2a and anti-Leu-3a monoclonal antibodies.
(§3) After erythrocyte lysing with FACS lysing solution (Becton Dickinson, San Jose) the cells were analyzed on FACScan flow cytometer (Becton Dickinson, San Jose) with scatter gate set on lymphocyte fraction.
(§4) The experiments were performed on 4 year-old Macaque Rh. monkeys. Each cohort consisted of 3 animals. […] The results of the experiments were evaluated clinically: by the presence or absence of urination from the ureterocutaneostoma.
(§5) After intravenous anesthesia with Ketalar®, an extraperitoneal access to the left kidney was performed through layer by layer cuts to the left lumbar region. The kidney was excised from the surrounding tissues. A clamp was applied to the vessel limb; the artery, the vein and the ureter each were prepared for anastomosis separately. The kidney was excised and transferred for hypothermal conservation in Collins' solution.
(§6) The donor kidney was transplanted into the recipient. […] anastomosis was performed: the graft arteries and veins attached to the appropriate recipient kidney vessels through plastic tubes. The kidney having been resuscitated by in blood flow, acquired the normal color and turgor. Additional hemostasis in the wound was performed. Ureterocutaneostomy was performed, which was followed by applying layer-upon-layer sutures on the wound and its aseptic dressing.
(§7) The monkeys were narcotized by means of the intravenous anesthesia with Ketalar® and subjected to medial laparotomy from the xiphoid down to the pubic joint. Access to the left Kidney was made extraperitoneally. The kidney was teased from the surrounding tissues. A clamp was put on the vessel limb; the artery, the vein and the ureter were dressed separately; the kidney was cut and transferred for hypothermal conservation in Collins' solution.
The internal iliac artery and the external iliac vein were extracted extra-peritoneally, immobilized and prepared for anastomosis. The donor kidney was transferred to the recipient. Vessel anastomosis was performed: the graft arteries were anastomosed with the internal iliac artery according to the end-to-end method and the graft veins were anastomosed with the external iliac vein according to the end-to-side method. The kidney having been engaged in blood flow, acquired a normal color and turgor. Bleeding on the line of the arterial anastomosis was stopped by making additional sutures. Ureterocutaneostomy was performed. The abdominal cavity was lavaged with the solution of disodium carbenicillin. Layer-upon-layer sutures on the wound were applied. Aseptic dressing was performed.
During our experiments we have divided monkeys into two groups, three monkeys to each group. For the first group (2'-5')A2 Ar-epoxy was administered intravenously at concentration of 50 μg/kg two days before the operation and at the second, sixth, and twelfth day after the operation and then every sixth day. […] After transplantation kidney functions were restored within 10 hours.
The administration schedule of (2'-5')A2 Ar-epoxy was modified slightly for the second group of monkeys. The preparation was injected two days before the operation and every other day at a concentration of 50 μg/kg during the entire post-transplantation period. […] The number of T-helpers dropped correspondingly from 37% to 7%. […] During the entire postoperative period, this activity tendency continues.

[2] = tested on: transplanted kidney; assay: Kidney cross-allotransplantation in monkeys: graft function
Procedure: as §4, §5, §6, §7
The internal iliac artery and the external iliac vein were extracted extra-peritoneally, immobilized and prepared for anastomosis. The donor kidney was transferred to the recipient. Vessel anastomosis was performed: the graft arteries were anastomosed with the internal iliac artery according to the end-to-end method and the graft veins were anastomosed with the external iliac vein according to the end-to-side method. The kidney having been engaged in blood flow, acquired a normal color and turgor. […]

[3] = tested on: T-killers; assay: T-killers in monkeys after kidney transplantation; details: second group, 50 μg/kg every other day
Procedure: as §1, §2, §3, §4
After intravenous anesthesia with Ketalar®, an extraperitoneal access to the left kidney was performed through layer by layer cuts to the left lumbar region. The kidney was excised from the surrounding tissues. […]

[4] = tested on: interleukin-II; assay: Immune system of monkeys: interleukin-II
Procedure: (§8) Immunosuppressive activity of the prototype 2'-5'A3 and two analogues (2'-5')A2 Ar-epoxy and (2'-5')A2 A^l-epoxy were investigated in monkeys. The experiments were performed on 4 year-old Macaque Rh. monkeys. The levels of the principal subpopulations of T-lymphocytes, IgA, IgG, IgM and the amount of α- and γ-interferon and interleukin II after administration (2'-5')olygoadenylate and its analogies at the concentration of 50 and 25 μg/kg of the body weight was investigated.
(§9) Serum levels of IgG, IgA, IgM were determined by radial immunodiffusion using antisera against human immunoglobulin A, M, G. The amount of interferon and interleukine-II were determined by the method of Lopez-Botet M. et al., 1982.

[5] = tested on: α-interferon and γ-interferon; assay: Immune system of monkeys: α- and γ-interferon
Procedure: as §8, §9

[6] = single IV 25 μg/kg, day 0 (baseline)
[7] = single IV 50 μg/kg, day 0 (baseline)

Substance: Adenylyl (2'-5')adenylyl (2'-5')-9-(2,3-anhydro-β-D-ribofuranosyl) adenine disodium salt [(2'-5')A2 Ar-epoxy]
- T-helpers ([1]; day 1 post-op.): 8%
- T-helpers ([1]; day 5 post-op.): 39.9%
- T-helpers ([1]; day 8 post-op.): 32%
- T-helpers ([1]; day 13 post-op.): 34.7%
- T-helpers ([1]; day 18 post-op.): 14.5%
- number of T-helpers ([1]; second group, 50 μg/kg every other day, 7 days after surgery, from 37%): 7%
- prevention of transplant rejection / kidney function, in words ([2]; 50 μg/kg IV, disodium salt): protects the transplant from rejection, and renews normal functioning of the transplanted kidney; also recorded: transplanted kidney resumes and maintains its normal functions; also recorded: effectively prevent the rejection
- time to restoration of kidney function after transplantation ([2]; first group: 50 μg/kg IV 2 days pre-op., days 2, 6, 12, then every sixth day): ≤ 10 h
- time to restoration of kidney function after transplantation ([2]; second group: 50 μg/kg 2 days pre-op. and every other day): ≤ 10 h
- T-killers, in words [3]: Analogous suppression effect
- effect on interleukin-II production, in words ([4]; monkeys, single IV, two weeks): suppresses production of interleukin-II
- Interleukin-II [4, 6]: 4 Units per 10,000 lymphocytes
- Interleukin-II ([4]; single IV 25 μg/kg, day 1): 2 Units per 10,000 lymphocytes
- Interleukin-II ([4]; single IV 25 μg/kg, day 2): 2 Units per 10,000 lymphocytes
- Interleukin-II ([4]; single IV 25 μg/kg, day 12): 2 Units per 10,000 lymphocytes
- Interleukin-II ([4]; single IV 25 μg/kg, day 21): 4 Units per 10,000 lymphocytes
- Interleukin-II [4, 7]: 8 Units per 10,000 lymphocytes
- Interleukin-II ([4]; single IV 50 μg/kg, day 1): 4 Units per 10,000 lymphocytes
- Interleukin-II ([4]; single IV 50 μg/kg, day 2): 4 Units per 10,000 lymphocytes
- Interleukin-II ([4]; single IV 50 μg/kg, day 12): 4 Units per 10,000 lymphocytes
- Interleukin-II ([4]; single IV 50 μg/kg, day 21): 4 Units per 10,000 lymphocytes
- effect on interferon, in words ([5]; monkeys, single IV, two weeks, disodium salt): stimulates the level of α-interferon and γ-interferon in blood lymphocytes for a period of two weeks; also recorded: the quantity of α-interferon in blood plasma tends to normalize; also recorded: does not suppress the production of γ-interferon
- α-interferon of lymphocytes [5, 6]: 16 Units per 10,000 lymphocytes
- α-interferon of plasma [5, 6]: 8 Units per 10,000 lymphocytes
- γ-interferon of lymphocytes [5, 6]: 4 Units per 10,000 lymphocytes
- α-interferon of lymphocytes ([5]; single IV 25 μg/kg, day 1): 32 Units per 10,000 lymphocytes
- α-interferon of plasma ([5]; single IV 25 μg/kg, day 1): 8 Units per 10,000 lymphocytes
- γ-interferon of lymphocytes ([5]; single IV 25 μg/kg, day 1): 16 Units per 10,000 lymphocytes
- α-interferon of lymphocytes ([5]; single IV 25 μg/kg, day 2): 32 Units per 10,000 lymphocytes
- α-interferon of plasma ([5]; single IV 25 μg/kg, day 2): 4 Units per 10,000 lymphocytes
- γ-interferon of lymphocytes ([5]; single IV 25 μg/kg, day 2): 16 Units per 10,000 lymphocytes
- α-interferon of lymphocytes ([5]; single IV 25 μg/kg, day 12): 32 Units per 10,000 lymphocytes
- α-interferon of plasma ([5]; single IV 25 μg/kg, day 12): 4 Units per 10,000 lymphocytes
- γ-interferon of lymphocytes ([5]; single IV 25 μg/kg, day 12): 16 Units per 10,000 lymphocytes
- α-interferon of lymphocytes ([5]; single IV 25 μg/kg, day 21): 16 Units per 10,000 lymphocytes
- α-interferon of plasma ([5]; single IV 25 μg/kg, day 21): 4 Units per 10,000 lymphocytes
- γ-interferon of lymphocytes ([5]; single IV 25 μg/kg, day 21): 8 Units per 10,000 lymphocytes
- α-interferon of lymphocytes [5, 7]: 32 Units per 10,000 lymphocytes
- α-interferon of plasma [5, 7]: 16 Units per 10,000 lymphocytes
- γ-interferon of lymphocytes [5, 7]: 4 Units per 10,000 lymphocytes
- α-interferon of lymphocytes ([5]; single IV 50 μg/kg, day 1): 32 Units per 10,000 lymphocytes
- α-interferon of plasma ([5]; single IV 50 μg/kg, day 1): 32 Units per 10,000 lymphocytes
- γ-interferon of lymphocytes ([5]; single IV 50 μg/kg, day 1): 8 Units per 10,000 lymphocytes
- α-interferon of lymphocytes ([5]; single IV 50 μg/kg, day 2): 64 Units per 10,000 lymphocytes
- α-interferon of plasma ([5]; single IV 50 μg/kg, day 2): 4 Units per 10,000 lymphocytes
- γ-interferon of lymphocytes ([5]; single IV 50 μg/kg, day 2): 32 Units per 10,000 lymphocytes
- α-interferon of lymphocytes ([5]; single IV 50 μg/kg, day 12): 64 Units per 10,000 lymphocytes
- α-interferon of plasma ([5]; single IV 50 μg/kg, day 12): 4 Units per 10,000 lymphocytes
- γ-interferon of lymphocytes ([5]; single IV 50 μg/kg, day 12): 32 Units per 10,000 lymphocytes
- α-interferon of lymphocytes ([5]; single IV 50 μg/kg, day 21): 32 Units per 10,000 lymphocytes
- α-interferon of plasma ([5]; single IV 50 μg/kg, day 21): 4 Units per 10,000 lymphocytes
- γ-interferon of lymphocytes ([5]; single IV 50 μg/kg, day 21): 8 Units per 10,000 lymphocytes
